The target in this test is T1, K-Ras G12D (Homo sapiens, UniProt P01116, G12D).
T1 construct: AGS (Cobioer, CBP60476) cell lines which harbor KRAS G12D mutation; host or cells: AGS
The test can be described thus: p-ERK Cellular 2-Plate Assay (Biological Example 2). It counts as cell-based. The settings on record: AGS cells (KRAS G12D), 3 h treatment, AlphaLISA p-ERK1/2, 2-plate; Biological Example 2 (unmarked values); read-out: AGS PERK EC50. As for the experimental part:
The ability of the compound of Formula (IIA′), (II′), or (II) or a pharmaceutically acceptable salt thereof (test compound) to inhibit K-Ras G12D activity was tested using AGS (Cobioer, CBP60476) cell lines which harbor KRAS G12D mutation as described below.
AGS (Cobioer, CBP60476) were seeded in 384-well plates and cultured overnight (10.000 cells per well 40 μl total volume). The following morning, cells were treated with test compound, with staring concentration at 10 μM and 3-fold dilution down to 0.5 nM for 3 h at 37° C., DMSO treatment served as control. p-ERK was then measured using AlphaLISA SureFire Ultra p-ERK1/2 (Thr202/Tyr204) Assay Kit (Perkin Elmer, cat #ALSU-PERK) following the manufacturer's instruction as follows.
Briefly, the culture medium was removed and 20 μl 1× lysis buffer was added to each well, followed by 30 minutes incubation on a plate shaker at room temperature. Then 10 μl of lysate was transferred to a white 384-well plate. Acceptor mixture was prepared according to manufacturer's instruction. 5 μl acceptor mixture was added to the cell lysate and the plate was wrapped with foil, spun at 500 rpm for 10 s, and incubated at RT for 60 min. Donor mixture was prepared under subdued light. 5 μl donor mixture was added to the cell lysate and the plate was spun at 500 rpm for 10s and incubated at RT for another 60 min. in the dark. Signal was then measured on a EnVision 2105 multimode plate reader. Percentage inhibition was calculated with DMSO treatment as 100% of signal, and IC50 was calculated by XLfit 5.5.x.
A general note: Alpha assays give light when donor and acceptor beads are brought close together.

The text below walks through data of patent US20240166669A1, “QUINAZOLINE AMINE DERIVATIVES AS KRAS INHIBITORS” (Nikang Therapeutics, Inc., priority 2021, published 2024).

Usually EC50 stands for the concentration that produces a half-maximal response.

T1 sequence (P01116 1-188 isoform P01116-2 G12D): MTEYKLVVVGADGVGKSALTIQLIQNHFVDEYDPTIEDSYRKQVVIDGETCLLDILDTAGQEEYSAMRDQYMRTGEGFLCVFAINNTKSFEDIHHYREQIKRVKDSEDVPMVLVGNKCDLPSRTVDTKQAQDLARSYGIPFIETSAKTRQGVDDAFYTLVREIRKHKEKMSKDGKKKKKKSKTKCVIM

On to `C#Cc1cccc2cc(O)cc(-c3ncc4c(N5CC6CCC(C5)N6)nc(OCC56CCCN5Cc5cnccc56)nc4c3F)c12` (centres unmarked) [Example 31, 4-(4-(3,8-diazabicyclo[3.2.1]octan-3-yl)-2-((6,7-dihydro-5H-pyrido[4,3-a]pyrrolizin-4b(9H)-yl)methoxy)-8-fluoropyrido[4,3-d]pyrimidin-7-yl)-5-ethynylnaphthalen-2-ol], for which the half-maximal effective concentration (EC50) stood at 4.1 nM. To `C#Cc1c(F)ccc2cccc(-c3ncc4c(N5CC6CCC(C5)N6)nc(OCC56CCCN5Cc5ccccc56)nc4c3F)c12` (centres unmarked) [Example 12, 9b-(((4-(3,8-diazabicyclo[3.2.1]octan-3-yl)-7-(8-ethynyl-7-fluoronaphthalen-1-yl)-8-fluoropyrido[4,3-d]pyrimidin-2-yl)oxy)methyl)-2,3,5,9b-tetrahydro-1H-pyrrolo[2,1-a]isoindole] belongs 105 nM; to `C#Cc1cccc2cc(O)cc(-c3ncc4c(N5CC6CCC(C5)N6)nc(OCC56CCCN5Cc5cccnc56)nc4c3F)c12` (centres unmarked) [Example 28, 4-(4-(3,8-diazabicyclo[3.2.1]octan-3-yl)-2-((8,9-dihydro-5H-pyrido[2,3-a]-pyrrolizin-9a(7H)-yl)methoxy)-8-fluoropyrido[4,3-d]pyrimidin-7-yl)-5-ethynylnaphthalen-2-ol], 46 nM; to `C#Cc1cccc2cc(O)cc(-c3ncc4c(N5CC6C=C(C#N)C(C5)N6)nc(OCC56CCCN5CCC6)nc4c3F)c12` (centres unmarked) [Example 7, 3-(7-(8-ethynyl-3-hydroxynaphthalen-1-yl)-8-fluoro-2-((tetrahydro-1H-pyrrolizin-7a(5H)-yl)methoxy)pyrido[4,3-d]pyrimidin-4-yl)-3,8-diazabicyclo[3.2.1]oct-6-ene-6-carbonitrile], 260 nM.

On to `C#Cc1cccc2cc(O)cc(-c3ncc4c(N5CC6CCC(C5)N6)nc(OC[C@]56CCCN5[C@H]5c7ccccc7OCC5C6)nc4c3F)c12` (mixture of isomers) [Example 39], for which the EC50 was found to be 0.25 nM. To `C#Cc1cccc2cc(O)cc(-c3ncc4c(N5CC6CCC(C5)N6)nc(OCC56CCCN5Cc5c(F)cccc56)nc4c3F)c12` (centres unmarked) [Example 24, 4-(4-(3,8-diazabicyclo[3.2.1]octan-3-yl)-8-fluoro-2-((6-fluoro-2,3-dihydro-1H-pyrrolo[2,1-a]isoindol-9b(5H)-yl)-methoxy)pyrido[4,3-d]pyrimidin-7-yl)-5-ethynylnaphthalen-2-ol] belongs 3.7 nM. As for `C#Cc1cccc2cc(O)cc(-c3ncc4c(N5C[C@H]6CC[C@@H](C5)N6)nc(OCC56CCCN5CC(=C)C6)nc4c3F)c12` (stereo partly drawn) [Example 1, 4-(4-((1R,5S)-3,8-diazabicyclo[3.2.1]octan-3-yl)-8-fluoro-2-((2-methylene-tetrahydro-1H-pyrrolizin-7a(5H)-yl)methoxy)pyrido[4,3-d]pyrimidin-7-yl)-5-ethynyl-naphthalen-2-ol], the 50% effective concentration (EC50) amounted to 0.2 nM. Turning to `C#Cc1cccc2cc(O)cc(-c3ncc4c(N5CC6CCC(C5)N6)nc(OCC56CCCN5CC(=CC)C6)nc4c3F)c12` (centres unmarked) [Example 15], the EC50 came out at 0.1 nM. To `C#Cc1cccc2cc(O)cc(-c3ncc4c(N5C[C@H]6CC[C@@H](C5)N6)nc(OCC56CCCN5Cc5c(C(F)(F)F)cccc56)nc4c3F)c12` (stereo partly drawn) [Example 34, 4-(4-((1R,5S)-3,8-diazabicyclo[3.2.1]octan-3-yl)-8-fluoro-2-((6-(trifluoromethyl)-2,3-dihydro-1H-pyrrolo[2,1-a]isoindol-9b(5H)-yl)methoxy)pyrido-[4,3-d]pyrimidin-7-yl)-5-ethynylnaphthalen-2-ol] belongs 25 nM. Turning to `C#Cc1cccc2cc(O)cc(-c3ncc4c(N5CC6CCC(C5)N6)nc(OC[C@@]56CCCN5[C@@H]5CCOCC5C6)nc4c3F)c12` (mixture of isomers) [Example 23], the EC50 was 0.48 nM. With `C#Cc1c(F)ccc2cccc(-c3ncc4c(N5C[C@H]6CC[C@@H](C5)N6)nc(OCC56CCCN5CC(=C)C6)nc4c3F)c12` (stereo partly drawn) [Example 11, 4-((1R,5S)-3,8-diazabicyclo[3.2.1]octan-3-yl)-7-(8-ethynyl-7-fluoronaphthalen-1-yl)-8-fluoro-2-((2-methylenetetrahydro-TH-pyrrolizin-7a(5H)-yl)methoxy)pyrido[4,3-d]pyrimidine], the EC50 was determined as 7 nM.

In the case of `C#Cc1cccc2cc(O)cc(-c3ncc4c(N5C[C@H]6CC[C@@H](C5)N6)nc(OCC56CCCN5Cc5ccccc56)nc4c3F)c12` (stereo partly drawn) [Example 6, 4-(4-((1R,5S)-3,8-diazabicyclo[3.2.1]octan-3-yl)-2-((2,3-dihydro-1H-pyrrolo[2,1-a]-isoindol-9b(5H)-yl)methoxy)-8-fluoropyrido[4,3-d]pyrimidin-7-yl)-5-ethynylnaphthalen-2-ol], the EC50 came to 0.6 nM. As to `C#Cc1cccc2cc(O)cc(-c3ncc4c(N5C[C@H]6CC[C@@H](C5)N6)nc(OCC56CCCN5CC(=CF)C6)nc4c3F)c12` (stereo partly drawn) [Example 2, 4-(4-((1R,5S)-3,8-diazabicyclo[3.2.1]octan-3-yl)-8-fluoro-2-((2-(fluoro-methylene)tetrahydro-1H-pyrrolizin-7a(5H)-yl)methoxy)pyrido[4,3-d]pyrimidin-7-yl)-5-ethynylnaphthalen-2-ol], the EC50 came to 0.2 nM. As to `C#Cc1cccc2cc(O)cc(-c3ncc4c(N5CC6CCC(C5)N6)nc(OC[C@]56CCCN5[C@H]5c7ccnn7CC5C6)nc4c3F)c12` (mixture of isomers) [Example 37], the EC50 came out at 6.6 nM. Under `C#Cc1cccc2cc(O)cc(-c3ncc4c(N5CC6NC(C5)C5CC65)nc(OCC56CCCN5CCC6)nc4c3F)c12` (centres unmarked) [Example 9, 5-ethynyl-4-(8-fluoro-2-((tetrahydro-1H-pyrrolizin-7a(5H)-yl)methoxy)-4-(7,9-diazatricyclo[3.3.1.02,4]nonan-7-yl)pyrido[4,3-d]pyrimidin-7-yl)naphthalen-2-ol] stands 253 nM; under `C=C1CN2CCCC2(COc2nc(N3C[C@H]4CC[C@@H](C3)N4)c3cnc(-c4cc(O)cc5cccc(F)c45)c(F)c3n2)C1` (stereo partly drawn) [Example 22, 4-(4-((1R,5S)-3,8-diazabicyclo-[3.2.1]octan-3-yl)-8-fluoro-2-((2-methylenetetrahydro-1H-pyrrolizin-7a(5H)-yl)methoxy)pyrido[4,3-d]-pyrimidin-7-yl)-5-fluoronaphthalen-2-ol], 1 nM; under `C#Cc1cccc2cc(O)cc(-c3ncc4c(N5CC6CCC(C5)N6)nc(OC[C@]56CCCN5[C@H]5c7cccnc7OCC5C6)nc4c3F)c12` (mixture of isomers) [Example 38], 1.1 nM. Take `C#Cc1cccc2cc(O)cc(-c3ncc4c(N5CC6CC(=C)C(C5)N6)nc(OCC56CCCN5CCC6)nc4c3F)c12` (centres unmarked) [Example 10, 5-ethynyl-4-(8-fluoro-4-(6-methylene-3,8-diazabicyclo[3.2.1]octan-3-yl)-2-((tetrahydro-1H-pyrrolizin-7a(5H)-yl)methoxy)pyrido[4,3-d]pyrimidin-7-yl)naphthalen-2-ol]: the EC50 turned out to be 128 nM.

Take `C#Cc1cccc2cc(O)cc(-c3ncc4c(N5C[C@H]6CC[C@@H](C5)N6)nc(OCC56CCCN5Cc5c(COC)cccc56)nc4c3F)c12` (stereo partly drawn) [Example 33, 4-(4-((1R,5S)-3,8-diazabicyclo-[3.2.1]octan-3-yl)-8-fluoro-2-((6-(methoxymethyl)-2,3-dihydro-1H-pyrrolo[2,1-a]isoindol-9b(5H)-yl)methoxy)-pyrido[4,3-d]pyrimidin-7-yl)-5-ethynylnaphthalen-2-ol]: the EC50 was 1.4 nM.

In the case of `C#Cc1cccc2cc(O)cc(-c3ncc4c(N5C[C@H]6CC[C@@H](C5)N6)nc(OC[C@@]56CC7COc8ccccc8C7N5C[C@H](F)C6)nc4c3F)c12` (stereo partly drawn) [Example 40, 4-(4-((1R,5S)-3,8-diazabicyclo[3.2.1]octan-3-yl)-8-fluoro-2-(((9R)-9-fluoro-6a,9,10,11a-tetrahydro-6H,7H-chromeno[3,4-b]pyrrolizin-7a(8H)-yl)methoxy)pyrido[4,3-d]pyrimidin-7-yl)-5-ethynylnaphthalen-2-ol], the concentration giving a half-maximal response (EC50) turned out to be 3.6 nM. To `C#Cc1cccc2cc(O)cc(-c3ncc4c(N5C[C@H]6CC[C@@H](C5)N6)nc(OCC56CCCN5Cc5cc(OC)ccc56)nc4c3F)c12` (stereo partly drawn) [Example 30, 4-(4-((1R,5S)-3,8-diazabicyclo-[3.2.1]octan-3-yl)-8-fluoro-2-((7-methoxy-2,3-dihydro-1H-pyrrolo[2,1-a]isoindol-9b(5H)-yl)methoxy)-pyrido[4,3-d]-pyrimidin-7-yl)-5-ethynylnaphthalen-2-ol] belongs 4 nM; to `C#Cc1cccc2cc(O)cc(-c3ncc4c(N5CC6CCC(C5)N6)nc(OCC56CCCN5Cc5cccc(F)c56)nc4c3F)c12` (centres unmarked) [Example 27, 4-(4-(3,8-diazabicyclo[3.2.1]octan-3-yl)-8-fluoro-2-((9-fluoro-2,3-dihydro-1H-pyrrolo[2,1-a]isoindol-9b(5H)-yl)-methoxy)pyrido[4,3-d]pyrimidin-7-yl)-5-ethynylnaphthalen-2-ol], 20 nM; to `C#Cc1cccc2cc(O)cc(-c3c(Cl)cc4c(N5C[C@H]6CC[C@@H](C5)N6)nc(OCC56CCCN5CC(=C)C6)nc4c3F)c12` (stereo partly drawn) [Example 56, 4-(4-((1R,5S)-3,8-diazabicyclo[3.2.1]octan-3-yl)-6-chloro-8-fluoro-2-((2-methylenetetrahydro-1H-pyrrolizin-7a(5H)-yl)methoxy)quinazolin-7-yl)-5-ethynylnaphthalen-2-ol], 1.3 nM.
